The METLIN SMRT retention time set (Domingo-Almenara et al. 2019)

Test: gradient 5% acetonitrile 3 min, to 50% in 2 min, to 85% in 15 min, held 3 min, 100 µL/min
Conditions: column: Zorbax Extend-C18 2.1 x 50 mm; eluents: water / acetonitrile, 0.1% formic acid
Procedure, shortened: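 In both positive and negative ionization mode, a quadrupole time-of-flight mass spectrometer coupled to HPLC analyzed pure standards run in mixtures of ~100 molecules. The Zorbax Extend-C18 column (2.1 × 50 mm, 1.8 μm) was operated at 100 μL/min with water and acetonitrile, each containing 0.1% formic acid. The dead volume was 40 μL and the dwell volume 900 μL. Retention time came from adduct peaks that were computationally picked and individually inspected by hand.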

| Structure (SMILES) | RP-LC retention time |
| --- | --- |
| COc1cc2ncnc(Nc3ccc(Cl)cc3F)c2cc1OC | 681 s |
| Cc1nc(-c2cn(C)c3ncccc23)sc1C(=O)Nc1ccc(Cl)cc1F | 975 s |
| CCOC(=O)c1c(C)n(Cc2ccco2)c2ccc(OCC)cc12 | 617 s |
| CCOc1ccc(NC(=O)Cn2c(N)nc(C)cc2=O)cc1 | 574 s |
| C=CCNC(=O)c1cnn(-c2ccc(-c3nc(C(C)(C)C)no3)cn2)c1C | 759 s |
| Cc1cc2nnc(SCC(=O)c3ccc4c(c3)OCO4)n2c2ccccc12 | 793 s |
| Cc1noc(CNS(=O)(=O)c2ccc(OC(F)(F)F)cc2)n1 | 818 s |
| COc1ccc(C(=O)NCc2c(C)noc2C)cc1F | 693 s |
| O=C(c1ccc(Cl)s1)N1CCc2nc(-c3ccc(F)cc3)ncc2C1 | 1070 s |
| CCC(C)NC(=O)Cn1nc2c3cc(-c4ccc(F)cc4)nn3ccn2c1=O (stereo not drawn) | 764 s |
| CCOc1ccccc1CN1CC(CO)C2(CCNCC2)C1 (stereo not drawn) | 520 s |
| CN1CCN(C(=O)c2ccc(-c3ccc(Br)cc3)o2)CC1 | 588 s |
| O=C(Nc1ccc2c(c1)CCC2)Nc1cccn2ncnc12 | 891 s |
| CCNC(=O)N(C)Cc1ccc(C)s1 | 722 s |
| COc1ccc(CNC(=O)C2CCN(c3ccc(SCc4ccccc4)nn3)CC2)cc1 | 742 s |
| CCc1nc2cc(-c3noc(-c4ccc(F)c(F)c4)n3)ccc2o1 | 1200 s |
| COc1cc(CCC(=O)N2C[C@@H](C(N)=O)[C@H](c3nc(C)no3)C2)on1 | 600 s |
| Fc1cccc(-c2nnc(Cc3nc(-c4ccc(Cl)cc4)no3)o2)c1 | 1110 s |
| CC(C)N1CCC2(CC1)N=C(c1ccc(Br)cc1)CC(c1cc(Cl)ccc1O)N2 (stereo not drawn) | 711 s |

| Structure (SMILES) | RP-LC retention time |
| --- | --- |
| COc1ccc(-c2nc3cc(C)ccn3c2NC(=O)c2ccc([N+](=O)[O-])cc2)cc1 | 691 s |
| CC(C)CNC(=O)N1CCc2c(c(-c3nc(-c4ccc(F)cc4)no3)nn2C)C1 | 940 s |
| Cc1cccc(NC(=O)c2ccc(=O)n(Cc3ccc(F)cc3)n2)n1 | 800 s |
| CC(C)n1c(CN2CCN(C)CC2)nc2cc(NC(=O)c3cccs3)ccc21 | 565 s |
| Cc1nc(-c2cc(S(=O)(=O)Nc3ccc(F)cc3F)c(C)s2)sc1C | 1090 s |
| O=C(Cn1nc(Cc2cccnc2)c2ccccc2c1=O)N1CCN(C(=O)c2ccco2)CC1 | 578 s |
| COc1ccc(-c2ncc3c(n2)CCN(S(=O)(=O)c2ccc(OC)c(Cl)c2)C3)cc1 | 1080 s |
| O=C(Nc1nc(-c2nc3ccccc3s2)cs1)c1c(F)cccc1F | 920 s |
| Cn1cnc2ccc(-c3noc(-c4ccc(Br)cc4)n3)cc21 | 848 s |
| CN1C(=O)c2cccnc2Sc2cc(C(=O)NCc3cccc(Cl)c3)ccc21 | 818 s |
| CC1CCc2nn(CC(=O)Nc3c(F)c(F)c(F)c(F)c3F)cc2C1 (stereo not drawn) | 934 s |
| CCc1cc(C(=O)Nc2ccccc2C)nc2ccnn12 | 1010 s |
| COC(=O)C1C(=O)C2=C(CC1C)NC(C)=C(C(=O)OC(C)C)C2c1ccccc1F (stereo not drawn) | 954 s |
| CS(=O)(=O)c1ccc(-c2cccc(NC(=O)Cc3cccs3)c2)nn1 | 707 s |
| COC(=O)c1ccc2c(=O)n(Cc3cccc(OC)c3)c(N3CCN(c4ccccn4)CC3)nc2c1 | 741 s |
| Cc1cc(C)nc(-n2nc(C)cc2N)n1 | 577 s |
| CSc1ccc(-c2nc3cccc(C)n3c2Nc2ccc3c(c2)OCO3)cc1 | 712 s |
| COc1ccc(CNS(=O)(=O)c2c(C)sc(C)c2-c2cc(C(F)(F)F)on2)cc1 | 1150 s |
| CN(C)c1cccc(/C=C(\C#N)c2ccccc2)c1 | 1100 s |

More lines, now with the values ahead:

| RP-LC retention time | Structure (SMILES) |
| --- | --- |
| 639 s | O=C(NC1CCNCC1)c1[nH]ncc1NC(=O)c1c(Cl)cccc1Cl |
| 765 s | CC(C)n1cnc(S(=O)(=O)N2CCC(C(=O)N3CCc4ccccc4C3)CC2)c1 |
| 940 s | Cc1ccc(CNC(=O)c2nnc(-c3ccc(S(=O)(=O)N4CCCC4)cc3)o2)cc1 |
| 776 s | O=C(c1[nH]nc2c1CCc1ccccc1-2)N1CCC(c2noc(-c3ccccn3)n2)C1 (stereo not drawn) |
| 648 s | Cc1cc(C)c2c(N3CCOCC3)nc(C(=O)NCCC(C)C)nc2n1 |
| 1090 s | O=C(CN1C(=O)C(C(=O)N2CCCCC2)Sc2ccccc21)NC1CCCCCC1 (stereo not drawn) |
| 1260 s | Cc1cccc(-c2noc(C3CCCN3S(=O)(=O)c3cc(C)ccc3C)n2)c1 (stereo not drawn) |
| 919 s | Cc1cccc(C)c1NC(=O)C1CCN(S(C)(=O)=O)c2cc(Cl)ccc2O1 (stereo not drawn) |
| 1020 s | CC1(C(=O)NCc2ccc(F)cc2)CN(S(=O)(=O)c2ccccc2)CC(=O)N1C1CCCCC1 (stereo not drawn) |
| 561 s | O=C(NCCN1CCCC1)C1CCN(c2nc3cccnc3s2)CC1 |
| 676 s | O=C(c1cn(-c2ccc(-c3nc(C4CC4)no3)cn2)cn1)N1CCCC1 |
| 620 s | O=C(c1ccc(OCC2CCCN(C(=O)c3cccs3)C2)cc1)N1CCOCC1 (stereo not drawn) |
| 834 s | Cc1cc2c(cc1S(=O)(=O)N1CCCC1C(=O)NC1CCCCCCC1)OCC(=O)N2 (stereo not drawn) |
| 875 s | Cc1ccc(CN2CCCn3nc(C(=O)NCc4ccc(C)o4)cc3C2=O)cc1 |
| 857 s | CCNC(=O)N(CC(=O)N1CCc2sccc2C1COc1ccccc1)CC1CC1 (stereo not drawn) |
| 979 s | COc1ccc(-c2nnc(-c3ccc(OC)c(S(=O)(=O)N4CCCCCC4)c3)o2)cc1OC |
| 846 s | CC(C)(C)c1ccc(S(=O)(=O)NCC(=O)Nc2ccc3c(c2)OCO3)cc1 |
| 808 s | CC(C)n1c(=O)sc2cc(S(=O)(=O)N3CCC(C(=O)NCc4cccnc4)CC3)ccc21 |
| 758 s | COCC(=O)N(C1CCOCC1)C1CCN(S(=O)(=O)c2cccc(F)c2)CC1 |
| 837 s | O=C(NC1CCCC1)c1nc(-c2cn(-c3ccc(Cl)cc3)nn2)no1 |
| 914 s | Cc1ccc(C)c(Cn2nc3c(S(=O)(=O)N4CCCC4)cccn3c2=O)c1 |
| 660 s | O=C(Nc1cccc(Br)c1)N1CCC(n2cnc3cccnc32)CC1 |
| 597 s | COCCN1CCC2(CC1)CN(Cc1cc(OC)ccc1OC)Cc1ccccc1O2 |
| 1080 s | Cc1ccc(Cn2c(N3CCCC(C(=O)Nc4cccc(C)c4)C3)nc3ccsc3c2=O)cc1 (stereo not drawn) |
| 753 s | Cn1cc(CN2CCC(C(=O)NCCCc3ccccc3)CC2)c2cc(Cl)ccc21 |

| RP-LC retention time | Structure (SMILES) |
| --- | --- |
| 765 s | CC1CCN(C(=O)c2cc3c(s2)CCC(C(=O)N2CCOCC2)C3)CC1 (stereo not drawn) |
| 1120 s | CSc1ccc(C2c3[nH]c4ccccc4c3CCN2C(=O)C2CC2)cc1 (stereo not drawn) |
| 630 s | Cc1[nH]c(C)c(S(=O)(=O)N2CCC(C(=O)NC3CC3)CC2)c1C(=O)N1CCCCC1 |
| 730 s | CC(C)C(=O)NCc1csc(C2CCCN(C(=O)c3cc(F)ccc3F)C2)n1 (stereo not drawn) |
| 867 s | CCCS(=O)(=O)NCCS(=O)(=O)N1CCN(c2cccc(Cl)c2)CC1 |
| 737 s | Cc1cc(NC(=O)c2ccc(S(=O)(=O)Nc3ccc4c(c3)OCO4)o2)no1 |
| 891 s | COc1cccc(CNC(=O)C2CCN(C(=O)c3cc4oc5ccccc5c4n3C)CC2)c1OC |
| 763 s | O=C(NCc1ccco1)c1ccc(NC(=O)C2CCC2)cc1N1CCCCC1 |
| 637 s | Cc1nc2cccnc2n1C1CCN(C(=O)Nc2ccccc2Br)CC1 |
| 770 s | Cc1cc(C)cc(NC(=O)C2CC(=O)N(c3n[nH]c4cccc(F)c34)C2)c1 (stereo not drawn) |
| 686 s | CN1CCOc2ccc(NC(=O)c3cc(-c4ccc(F)cc4)n[nH]3)cc2C1=O |
| 821 s | CCOC(=O)c1[nH]c(C)c(CCC(=O)NC(C)c2ccc3c(c2)OCCO3)c1C (stereo not drawn) |
| 990 s | Cn1nccc1C(=O)N1CCc2cc(-c3csc(C4CC4)n3)ccc21 |
| 1330 s | COC(=O)c1ccc2c(=O)n(Cc3ccc(OC)cc3)c(N3CCC(C)CC3)nc2c1 |
| 718 s | CC(=O)Nc1ccc(C(=O)N2CCC3(CC2)N=C(c2ccc(Cl)cc2)NO3)cc1 |
| 718 s | CCC(C)NC(=O)c1ccc(-c2nnc3ccc(NC(=O)C4CC4)cn23)cc1 (stereo not drawn) |
| 610 s | NC(=O)COc1cc(-c2ccccc2)nc2ccc(NC(=O)C3CC3)cc12 |
| 881 s | Cc1ccc(Sc2nccnc2N2CCC(C(=O)N3CCOCC3)CC2)cc1 |
| 603 s | Cc1nnc2sc(SCC(=O)NCc3ccc4c(c3)OCO4)nn2c1=O |
| 593 s | O=C(NC1CCCN(c2cc(-c3ccncc3)[nH]n2)C1)c1cccc(F)c1 (stereo not drawn) |
| 649 s | CCOc1ccc(C(C)NC(=O)C2CCN(c3cncnc3N3CCOCC3)CC2)cc1 (stereo not drawn) |
| 861 s | CCC1Oc2ccc(S(=O)(=O)N3CCC(C(=O)Nc4ccc(OC)cc4)CC3)cc2NC1=O (stereo not drawn) |
| 955 s | CCc1nc(-c2csc(S(=O)(=O)N3CCC(C(=O)NC4CCCCC4)CC3)c2)no1 |
| 1270 s | O=C1CC(C(=O)N2CCc3ccccc32)CN1CCc1c[nH]c2ccc(F)cc12 (stereo not drawn) |
| 714 s | COC(=O)c1ccc2c(=O)n(-c3ccc(C)c(F)c3)c(N3CCN(c4ccccn4)CC3)nc2c1 |
